Here are results for 20 molecules from US20230404887A1, “COMPOSITIONS TO LIMIT OR ELIMINATE THE PERCEPTION OF SWEAT MALODOR” (Firmenich SA, priority 2020, published 2023).

Assay [1] can be described thus: Expert perfumer evaluation of malodor reduction, dynamic olfactometer, against 3H3MHA. Details: species or system human; key to EXPERT RATING: −2: significant increase in malodor; −1: slight increase in malodor; 0: no effect; 1: slight malodor reduction; 2: good malodor reduction; 3: complete malodor reduction. The settings on record: for EFFECTIVE CONCENTRATION: MO 3H3MHA held fixed at mid-intensity (0.5), headspace concentration providing an effective level; for EXPERT RATING: MO 3H3MHA held fixed at mid-intensity (0.5 on scale 0-1), rating of degree of malodor reduction at the effective concentration. As for the experimental part:
The effectiveness of perfuming materials in compositions to reduce the perception of, for example, axillary sweat malodors, was evaluated by an expert perfumer by 1) selecting target axillary malodor components, 2) delivering target malodor components and candidate malodor reducing materials to the nose of an expert perfumer at carefully controlled concentrations, 3) having the expert perfumer identify the concentration at which malodor reduction was obtained, and 4) rating the degree of reduction achieved at the concentration identified in step 3. […] Two surprising results were be observed. The first is that not all tested materials yielded complete malodor reduction, often differing depending on which component they were tested against. […] Intensity and concentration were material-dependent and spanned a wide range of values on both axes. […] Thus, neither the required concentrations, nor performance ratings could be predicted a priori by one skilled in the art, yet are necessary and sufficient for designing malodor reducing compositions for use in perfuming products.
(§1) In this method, a dynamic multi-channel olfactometer was used to precisely deliver known gas phase concentrations of the test materials, using forced evaporation, into a stream of air emanating from a smelling port. The appropriate concentration of the malodor component was established prior to its being mixed with the candidate malodor reducing substance. The concentration was set at a concentration sufficient to produce an intensity of 0.5 (mid-intensity) on a scale of 0-1. The expert perfumer then dynamically adjusted the concentration of the candidate malodor reducing substance to determine the effective concentration, while maintaining a fixed concentration of the malodor component. Once the appropriate concentration had been determined, the expert perfumer evaluated the perception of the mixtures repeatedly over a period of several minutes, taking breaks in between sniffs to avoid adaptation to the components being tested, before providing a rating.
(§2) Tests were performed in a forced-evaporation, dynamic olfactometer, with malodor component concentrations held fixed at a mid-intensity. Ratings of effectiveness were based in the following scale: −2 (significant increase in malodor), −1 (slight increase in malodor), 0 (no effect), 1 (slight malodor reduction), 2 (good malodor reduction), 3 (complete malodor reduction). The malodor (MO) component abbreviations are 3H3MHA (3-methyl-3-hydroxyhexanoic acid), 3M2HA (3-methyl-2-hexenoic acid), 3M3SH (3-methyl-3-sulphanylhexanol).

Assay [2] can be described thus: Expert perfumer evaluation of malodor reduction, dynamic olfactometer, against 3M2HA. Details: species or system human. Particulars: for EFFECTIVE CONCENTRATION: MO 3M2HA held fixed at mid-intensity (0.5), headspace concentration providing an effective level; for EXPERT RATING: MO 3M2HA held fixed at mid-intensity (0.5 on scale 0-1), rating of degree of malodor reduction at the effective concentration. The protocol: (§3) The effectiveness of perfuming materials in compositions to reduce the perception of, for example, axillary sweat malodors, was evaluated by an expert perfumer by 1) selecting target axillary malodor components, 2) delivering target malodor components and candidate malodor reducing materials to the nose of an expert perfumer at carefully controlled concentrations, 3) having the expert perfumer identify the concentration at which malodor reduction was obtained, and 4) rating the degree of reduction achieved at the concentration identified in step 3.
as §1, §2

Assay [3] in a line: Expert perfumer evaluation of malodor reduction, dynamic olfactometer, against 3M3SH. Details: species or system human. The settings on record: for EFFECTIVE CONCENTRATION: MO 3M3SH held fixed at mid-intensity (0.5), headspace concentration providing an effective level; for EXPERT RATING: MO 3M3SH held fixed at mid-intensity (0.5 on scale 0-1), rating of degree of malodor reduction at the effective concentration. As for the experimental part:
as §3, §1, §2

Consider `C[C@@H]1C/C=C\CCCCCCCCCC(=O)C1` [(+)-(3R,5Z)-3-METHYL-5-CYCLOPENTADECEN-1-ONE], for which the “EFFECTIVE CONCENTRATION” value was 5.50E−01 micrograms/L AIR in assay [1], 1.65E−01 micrograms/L AIR in assay [2] and 2.75E−01 micrograms/L AIR in assay [3]. Further, the “EXPERT RATING” value in assay [1], in assay [2] and in assay [3] was 2 in each case.
On to `CC/C=C\CC/C=C/C=O` [(2E,6Z)-2,6-NONADIENAL], for which the “EFFECTIVE CONCENTRATION” value was 1.13E−03 micrograms/L AIR in assay [1], 2.83E−03 micrograms/L AIR in assay [2] and 5.67E−04 micrograms/L AIR in assay [3]. Further, the “EXPERT RATING” value in assay [1], in assay [2] and in assay [3] was 3 each time.
Consider “1-(3,3/5,5-dimethyl-1-cyclohexen-1-yl)-4-penten-1-one”, for which the “EFFECTIVE CONCENTRATION” value in assay [1] is 1.22E+00 micrograms/L AIR; in assay [2], 2.53E−03 micrograms/L AIR; in assay [3], 1.22E+00 micrograms/L AIR. Besides, the “EXPERT RATING” value in assay [1], in assay [2] and in assay [3] was 3 each time.
`C/C=C/C(=O)C1C(C)=CCCC1(C)C` (racemic): in assay [1], the “EFFECTIVE CONCENTRATION” value was found to be 1.08E−02 micrograms/L AIR and the “EXPERT RATING” value is recorded as 3. In addition, in assay [2], the “EFFECTIVE CONCENTRATION” value stood at 1.30E−02 micrograms/L AIR and the “EXPERT RATING” value turned out to be 2.
For `CCOC(=O)[C@@H]1[C@@H](C(C)C)[C@@H]2C=C[C@H]1C2` (racemic) [ETHYL 1RS,2SR,3SR,4SR-3-ISOPROPYLBICYCLO[2.2.1]HEPT-5-ENE-2-CARBOXYLATE], the “EFFECTIVE CONCENTRATION” value in assay [1] stood at 1.03E+00 micrograms/L AIR; in assay [2], 2.58E+00 micrograms/L AIR; in assay [3] it was 2.07E+01 micrograms/L AIR. Further, the “EXPERT RATING” value in assay [1] worked out at 3; in assay [2] it was 2; in assay [3] it was 3.
Turning to `C/C=C/c1ccc(OCC)c(O)c1` [(E)-2-ETHOXY-5-(1-PROPENYL)PHENOL], the “EFFECTIVE CONCENTRATION” value in assay [1] came out at 4.50E−03 micrograms/L AIR; in assay [2], 1.80E−02 micrograms/L AIR; in assay [3] it was 4.50E−02 micrograms/L AIR. In addition, the “EXPERT RATING” value in assay [1], in assay [2] and in assay [3] was 3 each time.
`Cc1ccc2c(c1)CC(C)(CO)C2` (racemic): the “EFFECTIVE CONCENTRATION” value is recorded as 3.13E−02 micrograms/L AIR in assay [1], 4.70E−02 micrograms/L AIR in assay [2] and 7.83E−02 micrograms/L AIR in assay [3]. In addition, the “EXPERT RATING” value in assay [1], in assay [2] and in assay [3] was 3 throughout.
On to `c1ccc(CCCc2ccccn2)cc1` [2-(3-PHENYLPROPYL)PYRIDINE], for which the “EFFECTIVE CONCENTRATION” value in assay [1] and in assay [2] was 1.43E−04 micrograms/L AIR each time. The “EXPERT RATING” value in assay [1] and in assay [2] was 3 throughout.
Turning to `CC1(C)CCC[C@]2(C)[C@H]3CCO[C@]3(C)CC[C@@H]12` (racemic) [(3aRS,5aSR,9aSR,9bRS)-3a,6,6,9a-TETRAMETHYLDODECAHYDRONAPHTHO[2,1-b]FURAN], in assay [2], the “EFFECTIVE CONCENTRATION” value is listed as 4.33E−03 micrograms/L AIR and the “EXPERT RATING” value was found to be 3. In addition, in assay [3], the “EFFECTIVE CONCENTRATION” value is 2.17E−03 micrograms/L AIR and the “EXPERT RATING” value is recorded as 3.
For the molecule “3-(2/4-ETHYLPHENYL)-2,2-DIMETHYLPROPANAL”, in assay [2], the “EFFECTIVE CONCENTRATION” value turned out to be 3.67E−01 micrograms/L AIR and the “EXPERT RATING” value was found to be 3. Further, in assay [3], the “EFFECTIVE CONCENTRATION” value turned out to be 7.33E−01 micrograms/L AIR and the “EXPERT RATING” value came to 2.
On the same counts, the results for `CC(=O)OC(C)(C)C1CC=C(C)CC1` (racemic) [(+−)-2-(4-METHYL-3-CYCLOHEXEN-1-YL)-2-PROPANYL ACETATE] are 1.08E+00 micrograms/L AIR, 3, 1.08E+00 micrograms/L AIR and 3.
As for `C=CCOC(=O)CCCCC` [ALLYL HEXANOATE], in assay [2], the “EFFECTIVE CONCENTRATION” value came to 1.06E+00 micrograms/L AIR and the “EXPERT RATING” value turned out to be 3. Further, in assay [3], the “EFFECTIVE CONCENTRATION” value stood at 2.12E+00 micrograms/L AIR and the “EXPERT RATING” value was determined as 3.
As for `CCCCC[C@H]1C(=O)CC[C@@H]1CC(=O)OC` (racemic) [METHYL 2-((1RS,2RS)-3-OXO-2-PENTYLCYCLOPENTYL)ACETATE], the “EFFECTIVE CONCENTRATION” value is reported as 5.73E−01 micrograms/L AIR in assay [1], 7.17E−01 micrograms/L AIR in assay [2] and 7.17E−01 micrograms/L AIR in assay [3]. In addition, the “EXPERT RATING” value in assay [1] came to 3; in assay [2], 2; in assay [3] it was 2.
As for `CC(=O)CCc1ccccc1` [4-PHENYL-2-BUTANONE], in assay [2], the “EFFECTIVE CONCENTRATION” value is reported as 7.50E−01 micrograms/L AIR and the “EXPERT RATING” value stood at 3. In assay [3], the “EFFECTIVE CONCENTRATION” value was 3.75E−01 micrograms/L AIR and the “EXPERT RATING” value amounted to 2.
Consider “(+−)-(3E)-4-(2,6,6-trimethyl-1/2-cyclohexen-1-yl)-3-buten-2-one”, for which the results for the “EFFECTIVE CONCENTRATION” value in assay [1], in assay [2] and in assay [3] were 2.00E−01 micrograms/L AIR, 4.00E−01 micrograms/L AIR and 8.00E−01 micrograms/L AIR, respectively. Besides, the “EXPERT RATING” value in assay [1] is listed as 3; in assay [2], 3; in assay [3] it was 2.
As to `C=C1CCCC(C)(C)C1C(=O)OC` (racemic) [(+−)-METHYL 2,2-DIMETHYL-6-METHYLIDENECYCLOHEXANECARBOXYLATE], the “EFFECTIVE CONCENTRATION” value in assay [1] was 8.00E−01 micrograms/L AIR; in assay [2], 4.00E−01 micrograms/L AIR; in assay [3], 4.00E−01 micrograms/L AIR. Also, the “EXPERT RATING” value in assay [1] stood at 3; in assay [2] it was 3; in assay [3] it was 2.
With `CC(C)=CCCC(C)CC=O` (racemic), in assay [1], the “EFFECTIVE CONCENTRATION” value is 1.30E−01 micrograms/L AIR and the “EXPERT RATING” value came out at 3. Also, in assay [2], the “EFFECTIVE CONCENTRATION” value amounted to 1.30E−01 micrograms/L AIR and the “EXPERT RATING” value is given as 2.
`CCCCCC#CC(=O)OC` [METHYL 2-OCTYNOATE]: in assay [2], the “EFFECTIVE CONCENTRATION” value amounted to 4.67E−01 micrograms/L AIR and the “EXPERT RATING” value amounted to 3. In addition, in assay [3], the “EFFECTIVE CONCENTRATION” value was found to be 4.67E−01 micrograms/L AIR and the “EXPERT RATING” value is 3.
Take `CC(=O)c1ccc2ccccc2c1`: the entries for the “EFFECTIVE CONCENTRATION” value in assay [1], in assay [2] and in assay [3] were 1.37E−02 micrograms/L AIR, 1.37E−02 micrograms/L AIR and 3.42E−02 micrograms/L AIR, respectively. In addition, the “EXPERT RATING” value in assay [1] stood at 3; in assay [2], 3; in assay [3] it was 2.
As for `CCOC(=O)/C=C/c1ccccc1` [ETHYL (E)-3-PHENYL-2-PROPENOATE], in assay [2], the “EFFECTIVE CONCENTRATION” value turned out to be 7.33E−02 micrograms/L AIR and the “EXPERT RATING” value came to 2. Further, in assay [3], the “EFFECTIVE CONCENTRATION” value worked out at 3.67E−02 micrograms/L AIR and the “EXPERT RATING” value amounted to 2.
